Measured values: patent US8722849B2, “Polypeptides” (Novo Nordisk A/S, priority 2011, dated 2014)
Starred links: 1 amine or outer side, 2 acyl side, 3 side chain; linkers in the order of their positions; H or OH if unused. Positions of bridges follow the written chain, without caps; N, C: chain ends. Residues, ends and D or L forms follow the SMILES beside them. *: point of attachment. C20 diacid = O=C(O)CCCCCCCCCCCCCCCCCCC(=O)*; C18 diacid = O=C(O)CCCCCCCCCCCCCCCCC(=O)*; γGlu = O=C(O)[C@H](CCC(=O)[*:2])N[*:1]

Test system: food intake
Experiment: Assay (I) efficacy testing on appetite (food intake), ad libitum fed rat model
Type: in vivo, Sprague Dawley (SD) rats
Conditions: 3 nmol/kg
How it was run: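 Food consumption was logged per animal every hour up to 7 h and again at 24 h (occasionally 48 h) after a single 0.01–3 mg/kg dose, given sc, po or ip at dark-phase onset. Ad libitum fed SD rats, 200–250 g, kept on inverted light/dark cycle; vehicle group included, outliers removed by Grubbs test.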

SMILES | Food intake reduction 0-24 h 3 nmol/kg (%) | Food intake reduction 24-48 h 3 nmol/kg (%)
CC[C@H](C)[C@H](NC(=O)[C@@H]1CCCN1C(=O)CNC(=O)[C@H](Cc1ccccc1)NC(=O)[C@H](CC(N)=O)NC(=O)[C@H](CC(N)=O)NC(=O)[C@H](CO)NC(=O)[C@H](CO)NC(=O)[C@H](Cc1c[nH]cn1)NC(=O)[C@H](Cc1c[nH]cn1)NC(=O)[C@H](CC(C)C)NC(=O)[C@H](Cc1ccccc1)NC(=O)[C@H](CCC(=O)O)NC(=O)[C@H](C)NC(=O)[C@H](CC(C)C)NC(=O)[C@H](CCCNC(=N)N)NC(=O)[C@H](CCC(N)=O)NC(=O)[C@@H](NC(=O)[C@H](C)NC(=O)[C@@H]1CSSC[C@H](NC(=O)[C@H](CCCCN)NC(=O)[C@H](CCC(=O)O)NC(=O)CC[C@H](NC(=O)CCCCCCCCCCCCCCCCC(=O)O)C(=O)O)C(=O)N[C@@H](CC(N)=O)C(=O)N[C@@H]([C@@H](C)O)C(=O)N[C@@H](C)C(=O)N[C@@H]([C@@H](C)O)C(=O)N1)[C@@H](C)O)C(=O)N[C@@H](CC(C)C)C(=O)N1CCC[C@H]1C(=O)N1CCC[C@H]1C(=O)N[C@H](C(=O)N[C@@H](CC(N)=O)C(=O)N[C@H](C(=O)NCC(=O)N[C@@H](CO)C(=O)N[C@@H](CC(N)=O)C(=O)N[C@H](C(=O)N[C@@H](Cc1ccc(O)cc1)C(N)=O)[C@@H](C)O)C(C)C)[C@@H](C)O [Example 42, N-alpha-[(S)-4-Carboxy-4-(17-carboxyheptadecanoylamino)butyryl]-Glu-[Glu14,His17]-pramlintide] ({C18 diacid-γGlu}-EKCNTATCATQRLAEFLHHSSNNFGPILPPTNVGSNTY-NH2; disulfide 3-8 (inferred)) | 45% | 5%
CC[C@H](C)[C@H](NC(=O)[C@@H]1CCCN1C(=O)CNC(=O)[C@H](Cc1ccccc1)NC(=O)[C@H](CC(N)=O)NC(=O)[C@H](CC(N)=O)NC(=O)[C@H](CO)NC(=O)[C@H](CO)NC(=O)[C@H](Cc1c[nH]cn1)NC(=O)[C@H](Cc1c[nH]cn1)NC(=O)[C@H](CC(C)C)NC(=O)[C@H](Cc1ccccc1)NC(=O)[C@H](CCC(=O)O)NC(=O)[C@H](C)NC(=O)[C@H](CC(C)C)NC(=O)[C@H](CCCNC(=N)N)NC(=O)[C@H](CCC(N)=O)NC(=O)[C@@H](NC(=O)[C@H](C)NC(=O)[C@@H]1CSSC[C@H](NC(=O)[C@H](CCCCN)NC(=O)CC[C@H](NC(=O)CCCCCCCCCCCCCCCCC(=O)O)C(=O)O)C(=O)N[C@@H](CC(N)=O)C(=O)N[C@@H]([C@@H](C)O)C(=O)N[C@@H](C)C(=O)N[C@@H]([C@@H](C)O)C(=O)N1)[C@@H](C)O)C(=O)N[C@@H](CC(C)C)C(=O)N1CCC[C@H]1C(=O)N1CCC[C@H]1C(=O)N[C@H](C(=O)N[C@@H](CC(N)=O)C(=O)N[C@H](C(=O)NCC(=O)N[C@@H](CO)C(=O)N[C@@H](CC(N)=O)C(=O)N[C@H](C(=O)N[C@@H](Cc1ccc(O)cc1)C(N)=O)[C@@H](C)O)C(C)C)[C@@H](C)O [Example 46, N-alpha-[(S)-4-Carboxy-4-(17-carboxyheptadecanoylamino)butyryl]-[Glu14,His17]-pramlintide] ({C18 diacid-γGlu}-KCNTATCATQRLAEFLHHSSNNFGPILPPTNVGSNTY-NH2; disulfide 2-7 (inferred); C-terminus assumed) | 54% | 27%
CC[C@H](C)[C@H](NC(=O)[C@@H]1CCCN1C(=O)CNC(=O)[C@H](Cc1ccccc1)NC(=O)[C@H](CC(N)=O)NC(=O)[C@H](CC(N)=O)NC(=O)[C@H](CO)NC(=O)[C@H](CO)NC(=O)[C@H](Cc1c[nH]cn1)NC(=O)[C@H](CCCNC(=N)N)NC(=O)[C@H](CC(C)C)NC(=O)[C@H](Cc1ccccc1)NC(=O)[C@H](CCC(=O)O)NC(=O)[C@H](C)NC(=O)[C@H](CC(C)C)NC(=O)[C@H](CCCNC(=N)N)NC(=O)[C@H](CCC(N)=O)NC(=O)[C@@H](NC(=O)[C@H](C)NC(=O)[C@@H]1CSSC[C@H](NC(=O)[C@H](CCCCN)NC(=O)CC[C@H](NC(=O)CCCCCCCCCCCCCCCCCCC(=O)O)C(=O)O)C(=O)N[C@@H](CC(N)=O)C(=O)N[C@@H]([C@@H](C)O)C(=O)N[C@@H](C)C(=O)N[C@@H]([C@@H](C)O)C(=O)N1)[C@@H](C)O)C(=O)N[C@@H](CC(C)C)C(=O)N1CCC[C@H]1C(=O)N1CCC[C@H]1C(=O)N[C@H](C(=O)N[C@@H](CC(N)=O)C(=O)N[C@H](C(=O)NCC(=O)N[C@@H](CO)C(=O)N[C@@H](CC(N)=O)C(=O)N[C@H](C(=O)N[C@@H](Cc1ccc(O)cc1)C(N)=O)[C@@H](C)O)C(C)C)[C@@H](C)O [Example 50, N-alpha-[(S)-4-Carboxy-4-(19-carboxynonadecanoylamino)butyryl]-[Glu14,Arg17]-pramlintide] ({C20 diacid-γGlu}-KCNTATCATQRLAEFLRHSSNNFGPILPPTNVGSNTY-NH2; disulfide 2-7 (inferred)) | 30% | 8%
CC[C@H](C)[C@H](NC(=O)[C@@H]1CCCN1C(=O)CNC(=O)[C@H](Cc1ccccc1)NC(=O)[C@H](CC(N)=O)NC(=O)[C@H](CC(N)=O)NC(=O)[C@H](CO)NC(=O)[C@H](CO)NC(=O)[C@H](Cc1c[nH]cn1)NC(=O)[C@H](Cc1c[nH]cn1)NC(=O)[C@H](CC(C)C)NC(=O)[C@H](Cc1ccccc1)NC(=O)[C@H](CCC(=O)O)NC(=O)[C@H](C)NC(=O)[C@H](CC(C)C)NC(=O)[C@H](CCCNC(=N)N)NC(=O)[C@H](CCC(N)=O)NC(=O)[C@@H](NC(=O)[C@H](C)NC(=O)[C@@H]1CSSC[C@H](NC(=O)[C@H](CCCCN)NC(=O)[C@H](CCC(=O)O)NC(=O)CC[C@H](NC(=O)CCCCCCCCCCCCCCCCCCC(=O)O)C(=O)O)C(=O)N[C@@H](CC(N)=O)C(=O)N[C@@H]([C@@H](C)O)C(=O)N[C@@H](C)C(=O)N[C@@H]([C@@H](C)O)C(=O)N1)[C@@H](C)O)C(=O)N[C@@H](CC(C)C)C(=O)N1CCC[C@H]1C(=O)N1CCC[C@H]1C(=O)N[C@H](C(=O)N[C@@H](CC(N)=O)C(=O)N[C@H](C(=O)NCC(=O)N[C@@H](CO)C(=O)N[C@@H](Cc1c[nH]cn1)C(=O)N[C@H](C(=O)N[C@@H](Cc1ccc(O)cc1)C(N)=O)[C@@H](C)O)C(C)C)[C@@H](C)O [Example 56, N-alpha-[(S)-4-Carboxy-4-(19-carboxynonadecanoylamino)butyryl]-Glu-[Glu14,His17,His35]-pramlintide] ({C20 diacid-γGlu}-EKCNTATCATQRLAEFLHHSSNNFGPILPPTNVGSHTY-NH2; disulfide 3-8 (inferred)) | 46% | 21%
